Data from ChEMBL document CHEMBL3301458, “MMV Malaria Box hERG screening”.
Calls of active or inactive are those of the source. The rule behind the calls is not given here.

Key:
[1] = molecular target: T1, hERG (Kv11.1, KCNH2) (Homo sapiens, UniProt Q12809); test: in vitro
Description: MMV: Malaria Box compounds were tested for inhibition of the human ether a go-go related gene (hERG), Kv11.1 channel, using IonWorks 384-well patch clamp electrophysiology at 11.1uM (3 independent assay plates up to 12 cells per concentration).

[2] = molecular target: T1, hERG (Kv11.1, KCNH2); test: in vitro; remark: listed apart in the source
Description: MMV: Malaria Box compounds were tested for inhibition of the human ether a go-go related gene (hERG), Kv11.1 channel, using IonWorks 384-well patch clamp electrophysiology at 1.1uM (3 independent assay plates up to 12 cells per concentration).

T1 sequence (Q12809 whole entry): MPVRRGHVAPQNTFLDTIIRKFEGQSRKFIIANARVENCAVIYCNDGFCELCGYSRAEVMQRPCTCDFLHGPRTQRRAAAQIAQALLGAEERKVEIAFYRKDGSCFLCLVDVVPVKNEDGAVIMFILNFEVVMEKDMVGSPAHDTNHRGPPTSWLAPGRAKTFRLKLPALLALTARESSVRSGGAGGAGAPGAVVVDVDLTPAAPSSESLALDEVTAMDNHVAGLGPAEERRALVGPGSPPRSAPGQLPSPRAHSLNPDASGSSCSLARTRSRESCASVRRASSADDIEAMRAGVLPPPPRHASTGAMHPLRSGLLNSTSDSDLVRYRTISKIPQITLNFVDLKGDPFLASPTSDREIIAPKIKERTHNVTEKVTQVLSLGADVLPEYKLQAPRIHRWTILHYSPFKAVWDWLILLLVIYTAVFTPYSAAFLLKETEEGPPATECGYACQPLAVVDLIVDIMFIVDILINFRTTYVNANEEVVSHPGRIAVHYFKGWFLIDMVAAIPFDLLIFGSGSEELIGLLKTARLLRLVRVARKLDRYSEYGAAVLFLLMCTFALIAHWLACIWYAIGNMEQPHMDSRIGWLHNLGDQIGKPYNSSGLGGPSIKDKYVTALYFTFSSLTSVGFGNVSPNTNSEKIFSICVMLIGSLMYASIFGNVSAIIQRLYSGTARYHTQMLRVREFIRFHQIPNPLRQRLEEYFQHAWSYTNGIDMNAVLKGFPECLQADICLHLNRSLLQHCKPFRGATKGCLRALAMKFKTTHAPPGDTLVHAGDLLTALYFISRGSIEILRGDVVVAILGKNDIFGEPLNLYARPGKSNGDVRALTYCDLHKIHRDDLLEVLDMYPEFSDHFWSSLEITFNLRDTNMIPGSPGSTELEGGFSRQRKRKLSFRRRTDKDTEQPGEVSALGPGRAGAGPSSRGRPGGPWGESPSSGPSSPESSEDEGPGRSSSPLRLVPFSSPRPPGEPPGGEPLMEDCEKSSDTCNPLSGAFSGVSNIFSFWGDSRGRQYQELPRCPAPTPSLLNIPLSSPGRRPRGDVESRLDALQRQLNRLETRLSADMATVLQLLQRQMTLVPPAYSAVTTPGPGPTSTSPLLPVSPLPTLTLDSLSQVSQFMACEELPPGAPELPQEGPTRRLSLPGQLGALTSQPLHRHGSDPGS

CCCCCCOC(=O)C1=C(C)NC(=O)NC1c1ccccc1F (stereo not given)
inhibition at 11.1 µM [1]: 1% (inactive)
inhibition at 1.1 µM [2]: -2%

CCOc1ccccc1NC(=O)CN1CCN(C(=O)c2ccco2)CC1
inhibition at 11.1 µM [1]: 35%
inhibition at 1.1 µM [2]: 13%

O=C(c1ccccc1F)N(Cc1ccc(Cl)cc1)c1ccccn1
inhibition at 11.1 µM [1]: 22% (inactive)
inhibition at 1.1 µM [2]: 7%

CN(C)c1ccc(N=Cc2ccc(N3CCOCC3)cc2)cc1
inhibition at 11.1 µM [1]: -3% (inactive)
inhibition at 1.1 µM [2]: -6%

Oc1c(CN2CCN(c3ccccc3F)CC2)cc(Br)c2cccnc12
inhibition at 11.1 µM [1]: 46%
inhibition at 1.1 µM [2]: -9%

Oc1ccc(Cl)cc1CNc1nc2ccccc2[nH]1
inhibition at 11.1 µM [1]: 52% (active)
inhibition at 1.1 µM [2]: 14%

CC(Oc1ccc(NC(=O)c2cccs2)cc1)C(=O)c1ccc(Cl)cc1 (stereo not given)
inhibition at 11.1 µM [1]: 55% (active)
inhibition at 1.1 µM [2]: -4%

COc1nc(Nc2ccc(C(C)C)cc2)nc(OC)n1
inhibition at 11.1 µM [1]: 17% (inactive)
inhibition at 1.1 µM [2]: -2%

COc1cc(OC)c(N(C)C(=O)c2cc3c(s2)-c2ccccc2S(=O)(=O)C3)cc1Cl
inhibition at 11.1 µM [1]: 41%
inhibition at 1.1 µM [2]: 3%

O=C(CCc1ccccc1)c1ccccc1OCC(O)CN1CCCCC1 (stereo not given)
inhibition at 11.1 µM [1]: 17% (inactive)
inhibition at 1.1 µM [2]: 1%

CCCCCn1c(=N)n(CC(O)COc2cccc(C)c2)c2ccccc21 (stereo not given)
inhibition at 11.1 µM [1]: 101%
inhibition at 1.1 µM [2]: 59%

Cc1ccc(Cn2c(N3CCC(C(=O)NCc4cccs4)CC3)nc3ccccc32)cc1
inhibition at 11.1 µM [1]: 103%
inhibition at 1.1 µM [2]: 105%

COc1cc(C(=O)Nc2nc3c(cc4c5c(cccc53)CC4)s2)cc(OC)c1OC
inhibition at 11.1 µM [1]: 23% (inactive)
inhibition at 1.1 µM [2]: 10%

CCCCCCc1cc(O)c2c3c(c(=O)oc2c1)CCC(C)C3 (stereo not given)
inhibition at 11.1 µM [1]: -7% (inactive)
inhibition at 1.1 µM [2]: -5%

CC1CCN(Cc2ccc(NC(=O)c3cc4ccc5cccnc5c4[nH]3)cc2)CC1
inhibition at 11.1 µM [1]: 101%
inhibition at 1.1 µM [2]: 64%

COc1ccc(Nc2nc(NCc3ccccc3)c3ccccc3n2)cc1
inhibition at 11.1 µM [1]: 53% (active)
inhibition at 1.1 µM [2]: 0%

CCc1ccc(CNCC(O)c2ccccc2)cc1 (stereo not given)
inhibition at 11.1 µM [1]: 67% (active)
inhibition at 1.1 µM [2]: 32%

O=C(NC1CCCC1)c1ccc(N2CCC(NCc3cccc(C(F)(F)F)c3)CC2)cc1
inhibition at 11.1 µM [1]: 101%
inhibition at 1.1 µM [2]: 76%

COc1ccc(-c2nc(NC(=O)CS(=O)(=O)c3ccc(F)cc3)sc2C)cc1
inhibition at 11.1 µM [1]: 69% (active)
inhibition at 1.1 µM [2]: 7%

CCCc1c(C)nc2ccccc2c1O
inhibition at 11.1 µM [1]: 7% (inactive)
inhibition at 1.1 µM [2]: -17%

Nc1nc(Nc2cccc(F)c2)nc2ccccc12
inhibition at 11.1 µM [1]: 59% (active)
inhibition at 1.1 µM [2]: 11%

Cc1sc(NC(=O)c2ccco2)c(C(c2cccnc2)N2CCC(Cc3ccccc3)CC2)c1C (stereo not given)
inhibition at 11.1 µM [1]: 9% (inactive)
inhibition at 1.1 µM [2]: -12%

Cc1ccc(C)c(-c2csc(Nc3ccc(C)c(C)c3)n2)c1
inhibition at 11.1 µM [1]: 100%
inhibition at 1.1 µM [2]: 57%

O=c1nc(C=Cc2ccc(Br)cc2)oc2ccccc12
inhibition at 11.1 µM [1]: 16% (inactive)
inhibition at 1.1 µM [2]: 8%

CCN(CC)c1ccc(NC(=O)c2cccs2)cc1
inhibition at 11.1 µM [1]: 1% (inactive)
inhibition at 1.1 µM [2]: -1%

CCOc1cc2c(cc1OCC)C(c1cc(C)c(O)c(C)c1)NCC2 (stereo not given)
inhibition at 11.1 µM [1]: 36%
inhibition at 1.1 µM [2]: 13%

Cc1ccc(-c2cc3nc4c(c(O)n3n2)CCCC4)cc1
inhibition at 11.1 µM [1]: 11% (inactive)
inhibition at 1.1 µM [2]: -4%

COc1ccc(C(=O)Nc2nonc2-c2ccc(OC)c(OC)c2)cc1Cl
inhibition at 11.1 µM [1]: 9% (inactive)
inhibition at 1.1 µM [2]: 7%

COc1ccc(C2NCCc3c2[nH]c2ccccc32)cc1CN1CCN(c2ccc(F)cc2)CC1 (stereo not given)
inhibition at 11.1 µM [1]: 113% (active)
inhibition at 1.1 µM [2]: 18%

COc1ccc(CCn2c(=N)c(C(=O)NCc3cccnc3)cc3c(=O)n4cccc(C)c4nc32)cc1
inhibition at 11.1 µM [1]: 14% (inactive)
inhibition at 1.1 µM [2]: 19%

c1ccc2c(NCCCCCCNc3c4c(nc5ccccc35)CCCC4)c3c(nc2c1)CCCC3
inhibition at 11.1 µM [1]: 102% (active)
inhibition at 1.1 µM [2]: 36%

CCOc1ccc(CCNC(=O)c2cccs2)cc1OCC
inhibition at 11.1 µM [1]: 13% (inactive)
inhibition at 1.1 µM [2]: 9%

O=C(Nc1ccc(CN2CCOCC2)cc1)c1ccc(-c2ccc(Br)cc2)o1
inhibition at 11.1 µM [1]: 98% (active)
inhibition at 1.1 µM [2]: 42%

FC(F)(F)c1ccc(Nc2nnnc3ccccc23)cc1
inhibition at 11.1 µM [1]: -2% (inactive)
inhibition at 1.1 µM [2]: -4%

CCOC(=O)c1cnc2ccc(Cl)cc2c1NCCCN(C)C
inhibition at 11.1 µM [1]: 85% (active)
inhibition at 1.1 µM [2]: 21%

CCc1ccc(Nc2cc(C)c3ccc(O)cc3n2)cc1
inhibition at 11.1 µM [1]: 78% (active)
inhibition at 1.1 µM [2]: 15%

N=c1c2ccccc2nnn1-c1cccc(C(F)(F)F)c1
inhibition at 11.1 µM [1]: 11% (inactive)
inhibition at 1.1 µM [2]: -3%

CCOc1ccc2nc(C)cc(Nc3ccc(N(C)C)cc3)c2c1
inhibition at 11.1 µM [1]: 3% (inactive)
inhibition at 1.1 µM [2]: 4%

OC1CCCCC1C1(NC(=S)Nc2ccccc2)CCCCC1 (stereo not given)
inhibition at 11.1 µM [1]: 51% (active)
inhibition at 1.1 µM [2]: 26%

COC(=O)c1ccc(C2C3=C(O)CC(c4ccc(F)cc4)CC3=Nc3ccccc3N2C(=O)c2ccccc2)cc1 (stereo not given)
inhibition at 11.1 µM [1]: 105%
inhibition at 1.1 µM [2]: 98%

CCN(CC)CCNc1ncnc2c1[nH]c1ccc(Br)cc12
inhibition at 11.1 µM [1]: 102%
inhibition at 1.1 µM [2]: 91%

CC(C)(C)CC(C)(C)NCC(O)COc1ccc(Cl)cc1Cl (stereo not given)
inhibition at 11.1 µM [1]: 81% (active)
inhibition at 1.1 µM [2]: 8%

CCOc1cc(CNC(C)C(O)c2ccccc2)cc(Cl)c1OCC (stereo not given)
inhibition at 11.1 µM [1]: 48%
inhibition at 1.1 µM [2]: 2%

Oc1ccc(C(=C(Cl)Cl)c2ccc(O)cc2)cc1
inhibition at 11.1 µM [1]: 15% (inactive)
inhibition at 1.1 µM [2]: 7%

COc1cccc(NC(=O)[C@H](C(C)C)n2c(=O)[nH]c3ccccc3c2=O)c1
inhibition at 11.1 µM [1]: 17% (inactive)
inhibition at 1.1 µM [2]: 2%

Cc1ccc(-c2cc3c(nn2)-c2ccccc2C3=O)cc1
inhibition at 11.1 µM [1]: 50% (active)
inhibition at 1.1 µM [2]: 14%

O=C(Nc1ccc(-c2nc3ccccc3[nH]2)cc1)c1ccc(Cl)c(Cl)c1
inhibition at 11.1 µM [1]: 45%
inhibition at 1.1 µM [2]: 2%

C=C(C)CCC(C)N1CCC(N2CCC(C(=O)NCCc3ccccc3)CC2)CC1 (stereo not given)
inhibition at 11.1 µM [1]: 71% (active)
inhibition at 1.1 µM [2]: 8%

Cc1nc2ccccc2c(O)c1CC=C(Cl)Cl
inhibition at 11.1 µM [1]: -2% (inactive)
inhibition at 1.1 µM [2]: -1%

COc1ccc(C2C(C(=O)Nc3cccc(OC)c3)c3ccccc3C(=O)N2C2CCCCC2)cc1 (stereo not given)
inhibition at 11.1 µM [1]: 70% (active)
inhibition at 1.1 µM [2]: 4%

CCOc1c(Cl)cc(CNCC(O)c2ccccc2)cc1OC (stereo not given)
inhibition at 11.1 µM [1]: 66% (active)
inhibition at 1.1 µM [2]: 16%

COCCNC(=O)c1ccc(OC2CCN(Cc3ccc(F)c(F)c3)CC2)c(Cl)c1
inhibition at 11.1 µM [1]: 68% (active)
inhibition at 1.1 µM [2]: 7%

CSC1=NC(=Nc2c(C)cccc2C)C2(CCC(C(C)(C)C)CC2)N1c1ccc(Cl)cc1 (stereo not given)
inhibition at 11.1 µM [1]: 5% (inactive)
inhibition at 1.1 µM [2]: -5%

Oc1ccccc1CN1CCN(C(c2ccccc2)c2ccccc2)CC1
inhibition at 11.1 µM [1]: 12% (inactive)
inhibition at 1.1 µM [2]: 13%

COc1ccccc1CNC(=O)CCn1c(=O)[nH]c2ccccc2c1=O
inhibition at 11.1 µM [1]: 19% (inactive)
inhibition at 1.1 µM [2]: -6%

Cc1cc(N2CCCC2)nc(Nc2ccc(NC(=O)CCc3ccccc3)cc2)n1
inhibition at 11.1 µM [1]: 116% (active)
inhibition at 1.1 µM [2]: 9%

CN(C)CCCNc1c2ccccc2nc2ccccc12
inhibition at 11.1 µM [1]: 31%
inhibition at 1.1 µM [2]: 5%

CCCCCC(=O)N1c2ccccc2N=C2CC(c3ccc(OC)c(OC)c3)CC(O)=C2C1c1ccc(C(F)(F)F)cc1 (stereo not given)
inhibition at 11.1 µM [1]: 23% (inactive)
inhibition at 1.1 µM [2]: 9%

CCN(CC)CCNc1ncnc2c1[nH]c1ccc(Cl)cc12
inhibition at 11.1 µM [1]: 97%
inhibition at 1.1 µM [2]: 99%

COc1ccccc1CNC(=O)CCn1c(=O)[nH]c2ccsc2c1=O
inhibition at 11.1 µM [1]: 5% (inactive)
inhibition at 1.1 µM [2]: -1%

N=c1n(CCN2CCCCC2)c2ccccc2n1CC(O)c1cccc(Br)c1 (stereo not given)
inhibition at 11.1 µM [1]: 73% (active)
inhibition at 1.1 µM [2]: 18%

CCCN(CCC)CCCNC(=O)c1cc2c(-c3ccc(OC)c(OC)c3)nn(C)c2s1
inhibition at 11.1 µM [1]: 47%
inhibition at 1.1 µM [2]: 6%

CCN1CCCC1CNc1[nH]cnc2c3cc(Cl)ccc3nc1-2 (stereo not given)
inhibition at 11.1 µM [1]: 29%
inhibition at 1.1 µM [2]: 6%

CCCn1c(=N)c(C(=O)NC2CCCCC2)cc2c(=O)n3cccc(C)c3nc21
inhibition at 11.1 µM [1]: 105%
inhibition at 1.1 µM [2]: 63%

COc1ccc(/C=C2/SC(=Nc3ccccc3)NC2=O)cc1
inhibition at 11.1 µM [1]: 27%
inhibition at 1.1 µM [2]: 12%

O=C(Nc1ccc(N2CCN(Cc3ccccc3)CC2)cc1)c1cccs1
inhibition at 11.1 µM [1]: 32%
inhibition at 1.1 µM [2]: 12%

CC(C)(C)c1ccc(C2CC3=Nc4ccccc4N(C(=O)c4ccccc4Cl)C(c4ccc(F)cc4)C3=C(O)C2)cc1 (stereo not given)
inhibition at 11.1 µM [1]: 88% (active)
inhibition at 1.1 µM [2]: 30%

CCOc1c(Cl)cc(CNC(C)C(O)c2ccccc2)cc1OC (stereo not given)
inhibition at 11.1 µM [1]: 39%
inhibition at 1.1 µM [2]: -4%

CCOC(=O)c1c[nH]c2c(CC)cccc2c1=O
inhibition at 11.1 µM [1]: 5% (inactive)
inhibition at 1.1 µM [2]: 10%

CC1CC2=C(CC1CNCCCN(C)C)C(C)(C)CCC2 (stereo not given)
inhibition at 11.1 µM [1]: 77% (active)
inhibition at 1.1 µM [2]: -3%

CCCCc1ccc(NS(=O)(=O)c2cc3c4c(c2)CCN4C(=O)CC3)cc1
inhibition at 11.1 µM [1]: 26%
inhibition at 1.1 µM [2]: 2%

CC1=C(CC(=O)c2cccc([N+](=O)[O-])c2)C(=O)c2ccccc2C1=O
inhibition at 11.1 µM [1]: 17% (inactive)
inhibition at 1.1 µM [2]: 9%

Oc1c2c(nc3cc(-c4ccccc4)nn13)CCCC2
inhibition at 11.1 µM [1]: -2% (inactive)
inhibition at 1.1 µM [2]: 2%

CN1C=C(c2ccc3ccccc3n2)C(c2c[nH]c3ccccc23)c2ccccc21 (stereo not given)
inhibition at 11.1 µM [1]: 89% (active)
inhibition at 1.1 µM [2]: 8%

COc1ccc(N2CCN(C(CNC(=O)CC(C)(C)C)c3ccc4c(c3)OCO4)CC2)cc1 (stereo not given)
inhibition at 11.1 µM [1]: 24% (inactive)
inhibition at 1.1 µM [2]: -5%
